Source: PubChem BioAssay AID1963836 (Molecular Pharmacology Branch, DTP, NCI, 2024)

Test system: 857933-349-R-J2-PDC complex spheroid viability
Assay: Anticancer human tumor 857933-349-R-J2-PDC patient-derived colon adenocarcinoma cell line growth inhibition [POLQ]
Conditions: for IC50: curve of first compound; for viability, T/C: stronger effect = lower value; active = viability on the fitted dose curve at most 10% of control; inactive = the rest
Method in brief: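 Complex spheroid viability model combining PDC tumour cells with endothelial (HUVEC) and MSC stromal cells. Novobiocin, ART-558 or RP6685 were tested singly and in combination with standard and investigational anticancer drugs. Each was titrated in half-log steps from near clinical Cmax, or from 10 microM where Cmax was unknown.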
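Also: spheroids exposed to compounds for seven days before readout.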

CCc1cc2c(N3CCc4c(cc(Cn5ccnc5)cc4-c4cn(C)nc4C(F)(F)F)C3=O)cc(C)nc2c(OC)n1 + Nc1ccc(C#CCN(C(=O)Cc2ncc(C(F)(F)F)cc2C(F)(F)F)c2ccc(F)cc2)nn1
inactive: viability, T/C (second compound 0.0316 µM, first compound 0.0316 µM) 94.9% | viability, T/C (second compound 0.0316 µM, first compound 0.1 µM) 92.8% | viability, T/C (second compound 0.0316 µM, first compound 0.316 µM) 80.3% | viability, T/C (second compound 0.0316 µM, first compound 1 µM) 79.8% | viability, T/C (second compound 0.0316 µM, first compound 3.16 µM) 67.4% | viability, T/C (second compound 0.0316 µM, first compound 10 µM) 62.8% | viability, T/C (second compound 0.1 µM, first compound 0.0316 µM) 92% | viability, T/C (second compound 0.1 µM, first compound 0.1 µM) 101% | viability, T/C (second compound 0.1 µM, first compound 0.316 µM) 76.2% | viability, T/C (second compound 0.1 µM, first compound 1 µM) 73.5% | viability, T/C (second compound 0.1 µM, first compound 3.16 µM) 77.7% | viability, T/C (second compound 0.1 µM, first compound 10 µM) 55.1% | viability, T/C (second compound 0.316 µM, first compound 0.0316 µM) 89% | viability, T/C (second compound 0.316 µM, first compound 0.1 µM) 86.8% | viability, T/C (second compound 0.316 µM, first compound 0.316 µM) 86.5% | viability, T/C (second compound 0.316 µM, first compound 1 µM) 81% | viability, T/C (second compound 0.316 µM, first compound 3.16 µM) 65.7% | viability, T/C (second compound 0.316 µM, first compound 10 µM) 57.1% | viability, T/C (second compound 1 µM, first compound 0.0316 µM) 95.9% | viability, T/C (second compound 1 µM, first compound 0.1 µM) 96.9% | viability, T/C (second compound 1 µM, first compound 0.316 µM) 86.8% | viability, T/C (second compound 1 µM, first compound 1 µM) 78.8% | viability, T/C (second compound 1 µM, first compound 3.16 µM) 75.3% | viability, T/C (second compound 1 µM, first compound 10 µM) 51.4% | viability, T/C (second compound 3.16 µM, first compound 0.0316 µM) 87.8% | viability, T/C (second compound 3.16 µM, first compound 0.1 µM) 87% | viability, T/C (second compound 3.16 µM, first compound 0.316 µM) 97.7% | viability, T/C (second compound 3.16 µM, first compound 1 µM) 69.3% | viability, T/C (second compound 3.16 µM, first compound 3.16 µM) 64.3% | viability, T/C (second compound 3.16 µM, first compound 10 µM) 59.5% | viability, T/C (second compound 10 µM, first compound 0.0316 µM) 90.2% | viability, T/C (second compound 10 µM, first compound 0.1 µM) 78.5% | viability, T/C (second compound 10 µM, first compound 0.316 µM) 75% | viability, T/C (second compound 10 µM, first compound 1 µM) 65.5% | viability, T/C (second compound 10 µM, first compound 3.16 µM) 53.5% | viability, T/C (second compound 10 µM, first compound 10 µM) 53.4%
> 10 µM: IC50 (second compound 0.0316 µM) | IC50 (second compound 0.1 µM) | IC50 (second compound 0.316 µM) | IC50 (second compound 1 µM) | IC50 (second compound 3.16 µM) | IC50 (second compound 10 µM)
